The record followed here is ChEMBL document CHEMBL5365551, “Fragment-Based NMR Screening of the BPTF PHD Finger Methyl Lysine Reader Leads to the First Small-Molecule Inhibitors” (ACS Med Chem Lett, 2023).

Active and inactive are the calls of the source. The rule behind the calls is not given here. A value given as a limit tells only on which side of the number the result lay.

In test [1] the target is T1, Nucleosome-remodeling factor subunit BPTF (Homo sapiens, UniProt Q12830). Nature of the test: Inhibition of biotinylated-H3K4me2 binding to N-terminal His9 tagged human BPTF isoform 2 PHD (2722 to 2781 residues) expressed in Escherichia coli BL21 Star (DE3) measured after 1 hr by Alphascreen assay.
Test [2] addresses T1, Nucleosome-remodeling factor subunit BPTF. As to the kind of experiment: Binding affinity to N-terminal His9 tagged human BPTF isoform 2 PHD (2722 to 2781 residues) expressed in Escherichia coli BL21 Star (DE3) assessed as change in chemical shift perturbations at 1 mM by 1H,15N HSQC NMR spectroscopy.
The target is the same in test [3]. Nature of the test: Binding affinity to N-terminal His9 tagged human BPTF isoform 2 PHD (2722 to 2781 residues) expressed in Escherichia coli BL21 Star (DE3) assessed as reduction in proton resonance intensity at 100 uM by 1H CPMG NMR assay relative to control. Also on record: scale not given: the % may be the effect or the level left.
Test [4] addresses Lysine-specific demethylase 5A (Homo sapiens) (UniProt P29375). As to the kind of experiment: Binding affinity to N-terminal His-tagged human KDM5A PHD3 (1486 to 1690 residues) expressed in Escherichia coli BL21 Star (DE3) assessed as reduction in proton resonance intensity at 100 uM by 1H CPMG NMR assay relative to control. On the set-up: scale not given: the % may be the effect or the level left.

In test [5] the target is T1, Nucleosome-remodeling factor subunit BPTF. Nature of the test: Binding affinity to N-terminal His9 tagged human BPTF isoform 2 PHD (2722 to 2781 residues) expressed in Escherichia coli BL21 Star (DE3) at 400 uM by SPR assay.
Test [6] has the same target. As to the kind of experiment: Inhibition of biotinylated-H3K4me2 binding to N-terminal His9 tagged human BPTF isoform 2 PHD (2722 to 2781 residues) expressed in Escherichia coli BL21 Star (DE3) at 2 mM measured after 1 hr by Alphascreen assay relative to control. A general note: In Alpha technology, singlet oxygen from a donor bead excites a nearby acceptor bead.

Chain of Lysine-specific demethylase 5A (Homo sapiens) (P29375 whole entry, the tested form may be a part): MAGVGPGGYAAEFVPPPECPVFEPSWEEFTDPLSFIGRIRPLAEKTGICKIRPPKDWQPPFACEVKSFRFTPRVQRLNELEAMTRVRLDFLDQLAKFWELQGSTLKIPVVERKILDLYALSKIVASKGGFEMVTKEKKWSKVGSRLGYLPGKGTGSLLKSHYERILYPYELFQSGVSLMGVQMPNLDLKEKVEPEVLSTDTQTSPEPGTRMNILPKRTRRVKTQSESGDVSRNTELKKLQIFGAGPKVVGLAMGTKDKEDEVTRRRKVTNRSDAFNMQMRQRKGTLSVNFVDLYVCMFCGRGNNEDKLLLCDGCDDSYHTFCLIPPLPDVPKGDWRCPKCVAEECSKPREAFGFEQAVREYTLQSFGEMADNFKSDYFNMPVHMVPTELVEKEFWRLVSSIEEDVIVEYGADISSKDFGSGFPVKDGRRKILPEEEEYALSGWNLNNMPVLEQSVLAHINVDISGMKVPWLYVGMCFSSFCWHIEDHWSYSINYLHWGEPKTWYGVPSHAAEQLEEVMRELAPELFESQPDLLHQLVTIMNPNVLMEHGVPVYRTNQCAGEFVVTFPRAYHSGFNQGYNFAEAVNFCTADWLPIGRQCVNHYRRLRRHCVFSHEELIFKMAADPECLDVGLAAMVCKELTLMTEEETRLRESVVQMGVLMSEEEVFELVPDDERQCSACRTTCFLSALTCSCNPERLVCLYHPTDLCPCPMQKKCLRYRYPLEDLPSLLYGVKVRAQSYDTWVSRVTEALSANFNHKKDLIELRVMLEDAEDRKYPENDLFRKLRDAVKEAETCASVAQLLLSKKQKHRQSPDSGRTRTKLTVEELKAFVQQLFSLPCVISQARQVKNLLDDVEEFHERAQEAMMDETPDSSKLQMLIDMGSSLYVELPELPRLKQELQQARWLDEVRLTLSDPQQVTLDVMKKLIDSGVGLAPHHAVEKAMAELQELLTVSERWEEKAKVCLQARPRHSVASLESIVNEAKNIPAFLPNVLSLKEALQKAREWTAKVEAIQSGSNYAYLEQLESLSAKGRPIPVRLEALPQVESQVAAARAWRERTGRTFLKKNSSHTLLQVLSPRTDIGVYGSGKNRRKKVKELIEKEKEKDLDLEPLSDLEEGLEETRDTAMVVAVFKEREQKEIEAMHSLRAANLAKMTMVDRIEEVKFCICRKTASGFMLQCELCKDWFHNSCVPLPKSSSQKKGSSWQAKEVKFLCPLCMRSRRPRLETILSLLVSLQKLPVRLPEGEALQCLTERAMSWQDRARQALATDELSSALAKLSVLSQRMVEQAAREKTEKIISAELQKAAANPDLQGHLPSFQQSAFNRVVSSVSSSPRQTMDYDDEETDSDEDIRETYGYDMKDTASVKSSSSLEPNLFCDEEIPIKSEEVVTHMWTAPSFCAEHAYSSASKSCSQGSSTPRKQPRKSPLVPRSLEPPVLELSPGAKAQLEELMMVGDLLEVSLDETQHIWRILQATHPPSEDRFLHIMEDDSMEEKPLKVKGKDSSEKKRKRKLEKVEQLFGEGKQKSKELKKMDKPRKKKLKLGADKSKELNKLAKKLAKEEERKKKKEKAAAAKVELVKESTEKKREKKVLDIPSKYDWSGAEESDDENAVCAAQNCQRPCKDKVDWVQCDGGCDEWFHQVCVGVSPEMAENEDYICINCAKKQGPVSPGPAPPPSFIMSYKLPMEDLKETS

A word on the IC50: it is the concentration at which inhibition is half-maximal. Regarding `Cc1ccc(Nc2ccc(Cl)nn2)cc1`, the IC50 result in test [1] was “Not Determined(Insoluble)”.
On to `Cc1ccc(Nc2ccc(N3CCNCC3)nn2)cc1`, for which the result in test [2] was inactive. For the same compound, the Activity is 50% in test [3] and under 20% in test [4]. In addition, the result in test [5] was Active. Moreover, in test [1] (read-out: IC50), the IC50 turned out to be 300 µM.
For `NCC1CC(=O)N(c2ccc(F)c(F)c2)C1` (centres undefined), the IC50 in test [1] (read-out: IC50) turned out to be 220 µM.
Regarding `Cc1ccc(NC(=O)NCC(C)N2CCCC2)cc1` (centres undefined), the figures for the Activity in test [3] and in test [4] were 35% and under 20%, respectively.
On to `CC(=O)N1CCN(c2ccc(Nc3ccc(C)cc3)nn2)CC1`, for which, in test [1] (read-out: IC50), the IC50 worked out at 1200 µM.
`Clc1ccc(N2CCNCC2)nn1`: the IC50 in test [1] (read-out: IC50) was found to be 750 µM.
On to `Nc1c2c(nc3c1CCC3)CCCC2` [IPIDACRINE], for which the Activity in test [3] was 50%; in test [4] it was under 20%. Also, the result in test [5] was Active. Also, the IC50 in test [1] (read-out: IC50) is 590 µM.
In the case of `c1ccc2nc(N3CCOCC3)ccc2c1`, the Activity was 35% in test [3] and under 20% in test [4]. Further, the result in test [5] was inactive.
In the case of `c1ccc(Nc2ccc(N3CCNCC3)nn2)nc1`, the IC50 in test [1] (read-out: IC50) was 20 µM.
For `Cc1ccc(Nc2ccc(N3CCNCC3)nn2)nc1`, in test [1] (read-out: IC50), the IC50 amounted to 30 µM.
Broadly, the inhibition is the relative decrease from the control value, in per cent. `Nc1ccnc2c1CCCC2`: in test [6], the inhibition was determined as 70%.
Regarding `Cc1cccc(CSC2=NCCN2)c1`, the Activity was 50% in test [3] and under 20% in test [4]. Moreover, in test [6], the inhibition amounted to 83%. Also, the result in test [5] was Active.
For the compound `CC(=O)N1CCc2c(sc(N)c2C#N)C1`, the IC50 in test [1] (read-out: IC50) worked out at 380 µM.
For the compound `N#Cc1c(N)sc2c1CCCCC2`, the IC50 in test [1] (read-out: IC50) stood at 63 µM.
For the compound `Nc1c2c(nc3c1CCC3)CCC2`, in test [6], the inhibition was found to be 60%.
With `Cn1nc2c(c1CNC(=O)c1ccc3c(c1)OCO3)CCC2`, the Activity in test [3] is 25%; in test [4], under 20%. The compound also registered an inhibition in test [6] of 71%. Further, in test [5], the result was inactive.
As to `N#Cc1c(N)sc2c1CCCC2`, in test [2], the result was Active. Moreover, the Activity in test [3] is 60%; in test [4] it was over 20%. Moreover, the result in test [5] was inactive. Also, the IC50 in test [1] (read-out: IC50) was determined as 130 µM.
Consider `Fc1ccc(Nc2ccc(N3CCNCC3)nn2)cc1`, for which the result in test [2] was inactive. Moreover, the IC50 in test [1] (read-out: IC50) stood at 25 µM.
As for `COC1CN(c2nc3ccccc3s2)C1`, the Activity in test [3] is 30%; in test [4], under 20%. The compound also showed an inhibition in test [6] of 70%. In test [5], the result was Active.
As for `CCS(=O)(=O)N1CCN(c2ccc(Nc3ccc(C)cc3)nn2)CC1`, in test [6], the inhibition came out at 78%.
`O=C(CC12CC3CC(CC(C3)C1)C2)N1CCCC1`: the Activity in test [3] is 25%; in test [4], over 20%. Further, in test [5], the result was inactive. In test [1] (read-out: IC50), the IC50 was found to be 500 µM.
Consider `NCC1CCN(c2cccc(F)c2)C1` (centres undefined), for which the result in test [2] and in test [5] was Active. The Activity in test [3] is 65%; in test [4] it was under 20%. Further, the IC50 in test [1] (read-out: IC50) was determined as 380 µM.
Turning to `c1ccc(N2CC3CNCC3C2)cc1` (centres undefined), the IC50 in test [1] (read-out: IC50) turned out to be 150 µM.
